Test results reported in article PMC11790914, “Chemogenomics for steroid hormone receptors (NR3)” (Communications Chemistry, 2025).
Values joined by “and” are separate entries in the source; they are usually repeats but may differ in a detail not shown here. Identical values can stand only once.

What was measured:
[1] = target: T1, FGFR3 (Homo sapiens, UniProt P22607); assay: Liability panel screening by DSF: FGFR3; format: binding; details: DSF, 20 µM, n=2; read-out: Mean ΔTM FGFR3
T1 construct: made in house
Outline: (§1)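 Recombinant protein at 2 µM in 10 mM HEPES pH 7.5 with 500 mM NaCl was mixed with SYPRO Orange (1:1000) and heated at 3 °C/min up to 85 °C. Tm was taken as the Boltzmann-fit inflection point. Shifts are ∆Tm in K from technical duplicates.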

[2] = test system: NF-κB activity in HEK293 NF-κB reporter cells; assay: NF-kB activity assay (GFP reporter, ionomycin/PMA); format: cell-based; details: n=3
Outline: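 Reporter readout: GFP-expressing cells normalized to confluence, imaged every 90 min across 24 h after ionomycin (100 ng/mL)/PMA (10 ng/mL) stimulation of HEK293 cells pre-treated 4 h with compound (0.1% DMSO); triplicate independent experiments.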

[3] = test system: HEK293T cells; assay: Cytotoxicity: growth-rate (change in confluence over 24 h); details: normalized to 0.1% DMSO control, single replicates (n=1...)
Protocol: Cells were incubated with the test compounds at the indicated concentrations solubilized with 0.1% DMSO for 24 h. Growth-rate was determined based on the change in confluence over 24 h normalized to the change in confluence of cells treated with the 0.1% DMSO control (n = 10). Metabolic activity was determined with a water-soluble tetrazolium-8 (WST-8) assay (n = 8) after 24 h treatment. Apoptotic cells were detected with a fluorogenic DNA dye coupled to the caspase-3/7 recognition sequence (DEVD) after 24 h treatment and the apoptotic cell count was normalized to 0.1% DMSO treated cells (n = 6).
HEK293T cells (German Collection of Microorganisms and Cell Culture GmbH, DSMZ; #ACC305) were cultured in DMEM high glucose, supplemented with 10% fetal calf serum (FCS), sodium pyruvate (1 mM), penicillin (100 µ/mL) and streptomycin (100 µg/mL) at 37 °C and 5% (v/v) CO2, and seeded in pre-coated (10 µg/mL collagen G solution (Merck KgaA; #L7213) for 30 min at 37 °C) 96-well plates (2 × 10^5 cells per well). After 24 h, the cells were treated with the respective NR3 CG compound candidate at the recommended concentration, bexarotene (100 µM) or doxorubicin (30 µM) as positive controls in DMEM high glucose supplemented with 0.1% FCS, penicillin (100 µ/mL), streptomycin (100 µg/mL) and 0.1% DMSO, or 0.1% DMSO alone as an untreated control. Each sample was prepared in at least four biologically independent replicates. […] Thereafter, the medium was aspirated and the cells were incubated for 3 h with 90 µL DMEM high glucose supplemented with 0.2% FCS, penicillin (100 µ/mL) and streptomycin (100 µg/mL) and additionally containing 10 µL Cell Counting Kit 8 solution (CCK-8; MedChemExpress, Monmouth Junction, New York, USA; #HY-K0301), and absorbance was measured at 1 h, 2 h and 3 h of incubation at 450 nm on a Tecan Spark Cyto to assess metabolic activity of the cells. Before drug administration, after the first medium exchange, 24 h after drug administration, and after fluorescence imaging cell confluence was assessed using the Tecan Spark Cyto, to account for changes in cell confluence due to drug administration and cell handling. Compound effects on cell confluence, apoptosis, metabolic activity and necrosis were normalized to the vehicle control of each biological replicate individually.

[4] = target: T2, CSNK1D (Homo sapiens, UniProt P48730); assay: Liability panel screening by DSF: CSNK1D; format: binding; details: DSF, 20 µM, n=2; read-out: Mean ΔTM CSNK1D
T2 construct: made in house
Outline: as §1

[5] = test system: HEK293T cells; assay: Cytotoxicity: necrosis induction (red fluorescent dye for permeable plasma membranes); format: cell-based; details: 3 µM, 24 h, necrotic cell count normalized to 0.1% DMSO, single replicates;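 note: compounds applied in DMEM high glucose with 0.1% FCS and 0.1% DMSO, necrotic HEK293T cells counted by red staining of cells whose plasma membranes had become permeable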
Protocol: Cells were incubated with the test compounds at the indicated concentrations solubilized with 0.1% DMSO for 24 h. […] Necrotic cells were detected with a red fluorescent dye that labels cells with permeable plasma membranes after 24 h treatment and the necrotic cell count was normalized to 0.1% DMSO treated cells (n = 4). e NR family selectivity profiling of NR3 CG compound candidates in uniform Gal4-hybrid reporter gene assays for selected NR representing the NR1, NR2, NR4 and NR5 families.
HEK293T cells (German Collection of Microorganisms and Cell Culture GmbH, DSMZ; #ACC305) were cultured in DMEM high glucose, supplemented with 10% fetal calf serum (FCS), sodium pyruvate (1 mM), penicillin (100 µ/mL) and streptomycin (100 µg/mL) at 37 °C and 5% (v/v) CO2, and seeded in pre-coated (10 µg/mL collagen G solution (Merck KgaA; #L7213) for 30 min at 37 °C) 96-well plates (2 × 10^5 cells per well). After 24 h, the cells were treated with the respective NR3 CG compound candidate at the recommended concentration, bexarotene (100 µM) or doxorubicin (30 µM) as positive controls in DMEM high glucose supplemented with 0.1% FCS, penicillin (100 µ/mL), streptomycin (100 µg/mL) and 0.1% DMSO, or 0.1% DMSO alone as an untreated control. Each sample was prepared in at least four biologically independent replicates. […] Before drug administration, after the first medium exchange, 24 h after drug administration, and after fluorescence imaging cell confluence was assessed using the Tecan Spark Cyto, to account for changes in cell confluence due to drug administration and cell handling. Compound effects on cell confluence, apoptosis, metabolic activity and necrosis were normalized to the vehicle control of each biological replicate individually.

[6] = target: T3, GSK3B (Homo sapiens, UniProt P49841); assay: Liability panel screening by DSF: GSK3B; format: binding; details: DSF, 20 µM, n=2; read-out: Mean ΔTM GSK3B
T3 construct: made in house

[7] = target: T4, CDK2 (Homo sapiens, UniProt P24941); assay: Liability panel screening by DSF: CDK2; format: binding; details: DSF, 20 µM, n=2; read-out: Mean ΔTM CDK2
T4 construct: made in house
Outline: as §1

[8] = target: T5, TRIM24 (Homo sapiens, UniProt O15164); assay: Liability panel screening by DSF: TRIM24; format: binding; details: DSF, 20 µM, n=2; read-out: Mean ΔTM TRIM24
T5 construct: This panel comprised ten highly ligandable kinases and bromodomains; made in house
T5 sequence (O15164 899-1004 limits assumed): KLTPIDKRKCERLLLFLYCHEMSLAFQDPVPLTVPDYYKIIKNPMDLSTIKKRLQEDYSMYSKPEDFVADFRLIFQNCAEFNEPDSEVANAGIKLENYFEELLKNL
Outline: as §1

[9] = target: T6, ABL1 (Homo sapiens, UniProt P00519); assay: Liability panel screening by DSF: ABL1; format: binding; details: DSF, 20 µM, n=2; read-out: Mean ΔTM ABL1
T6 construct: made in house
Outline: as §1

[10] = test system: Gal4-VP16; format: cell-based
[11] = test system: HEK293T cells; assay: Cytotoxicity: apoptosis induction (caspase-3/7 DEVD fluorogenic DNA dye); details: single replicates
[12] = target: T7, MAPK1 (Homo sapiens, UniProt P28482); assay: Liability panel screening by DSF: MAPK1; format: binding; details: DSF, 20 µM, n=2; read-out: Mean ΔTM MAPK1
T7 construct: made in house
Outline: as §1

[13] = target: T8, BRPF1 (Homo sapiens, UniProt P55201); assay: Liability panel screening by DSF: BRPF1; format: binding; details: DSF, 20 µM, n=2; read-out: Mean ΔTM BRPF1
T8 construct: This panel comprised ten highly ligandable kinases and bromodomains; made in house
T8 sequence (P55201 628-732 limits assumed): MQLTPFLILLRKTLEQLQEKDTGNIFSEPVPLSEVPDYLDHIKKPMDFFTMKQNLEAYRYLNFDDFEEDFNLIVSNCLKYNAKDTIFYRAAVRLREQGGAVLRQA
Outline: as §1

[14] = target: T9, AURKA (Homo sapiens, UniProt O14965); assay: Liability panel screening by DSF: AURKA; format: binding; details: DSF, 20 µM, n=2; read-out: Mean ΔTM AURKA
T9 construct: made in house
T9 sequence (O14965 1-403): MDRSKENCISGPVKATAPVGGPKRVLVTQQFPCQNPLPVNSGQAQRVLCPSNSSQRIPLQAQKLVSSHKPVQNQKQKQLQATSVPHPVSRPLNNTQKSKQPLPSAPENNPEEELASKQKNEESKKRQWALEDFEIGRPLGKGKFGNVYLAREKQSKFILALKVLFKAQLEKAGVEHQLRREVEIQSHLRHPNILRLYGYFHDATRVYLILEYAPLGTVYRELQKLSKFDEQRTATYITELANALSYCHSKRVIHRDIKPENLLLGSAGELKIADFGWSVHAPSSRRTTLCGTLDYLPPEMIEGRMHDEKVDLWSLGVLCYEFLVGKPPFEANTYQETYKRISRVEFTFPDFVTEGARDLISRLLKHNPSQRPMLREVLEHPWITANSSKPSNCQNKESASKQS
Outline: as §1

[15] = target: T10, BRD4 (Homo sapiens, UniProt O60885); assay: Liability panel screening by DSF: BRD4; format: binding; details: DSF, 20 µM, n=2; read-out: Mean ΔTM BRD4
T10 construct: This panel comprised ten highly ligandable kinases and bromodomains; made in house
Outline: as §1

T1 sequence (P22607 23-806, species assumed): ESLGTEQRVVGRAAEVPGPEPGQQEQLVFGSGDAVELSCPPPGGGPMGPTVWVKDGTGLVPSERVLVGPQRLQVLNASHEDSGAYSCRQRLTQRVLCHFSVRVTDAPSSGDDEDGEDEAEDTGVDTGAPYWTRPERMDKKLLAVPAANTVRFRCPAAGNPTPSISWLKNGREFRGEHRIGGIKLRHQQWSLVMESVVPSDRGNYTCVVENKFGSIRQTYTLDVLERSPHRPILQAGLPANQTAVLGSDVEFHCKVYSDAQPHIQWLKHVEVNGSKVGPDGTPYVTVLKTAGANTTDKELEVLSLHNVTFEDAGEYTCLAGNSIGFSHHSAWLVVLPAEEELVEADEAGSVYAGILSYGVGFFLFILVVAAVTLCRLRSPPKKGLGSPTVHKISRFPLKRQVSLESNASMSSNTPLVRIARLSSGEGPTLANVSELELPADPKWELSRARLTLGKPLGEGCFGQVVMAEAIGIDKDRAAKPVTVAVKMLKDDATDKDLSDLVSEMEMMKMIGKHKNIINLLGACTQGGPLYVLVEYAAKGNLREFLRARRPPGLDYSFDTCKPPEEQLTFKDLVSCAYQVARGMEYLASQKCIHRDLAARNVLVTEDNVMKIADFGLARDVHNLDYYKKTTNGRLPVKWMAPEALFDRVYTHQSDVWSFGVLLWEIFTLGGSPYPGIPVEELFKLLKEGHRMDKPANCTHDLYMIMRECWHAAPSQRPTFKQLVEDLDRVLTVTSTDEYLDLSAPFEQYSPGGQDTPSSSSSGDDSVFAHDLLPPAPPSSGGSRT
T6 sequence (P00519 whole entry, species assumed): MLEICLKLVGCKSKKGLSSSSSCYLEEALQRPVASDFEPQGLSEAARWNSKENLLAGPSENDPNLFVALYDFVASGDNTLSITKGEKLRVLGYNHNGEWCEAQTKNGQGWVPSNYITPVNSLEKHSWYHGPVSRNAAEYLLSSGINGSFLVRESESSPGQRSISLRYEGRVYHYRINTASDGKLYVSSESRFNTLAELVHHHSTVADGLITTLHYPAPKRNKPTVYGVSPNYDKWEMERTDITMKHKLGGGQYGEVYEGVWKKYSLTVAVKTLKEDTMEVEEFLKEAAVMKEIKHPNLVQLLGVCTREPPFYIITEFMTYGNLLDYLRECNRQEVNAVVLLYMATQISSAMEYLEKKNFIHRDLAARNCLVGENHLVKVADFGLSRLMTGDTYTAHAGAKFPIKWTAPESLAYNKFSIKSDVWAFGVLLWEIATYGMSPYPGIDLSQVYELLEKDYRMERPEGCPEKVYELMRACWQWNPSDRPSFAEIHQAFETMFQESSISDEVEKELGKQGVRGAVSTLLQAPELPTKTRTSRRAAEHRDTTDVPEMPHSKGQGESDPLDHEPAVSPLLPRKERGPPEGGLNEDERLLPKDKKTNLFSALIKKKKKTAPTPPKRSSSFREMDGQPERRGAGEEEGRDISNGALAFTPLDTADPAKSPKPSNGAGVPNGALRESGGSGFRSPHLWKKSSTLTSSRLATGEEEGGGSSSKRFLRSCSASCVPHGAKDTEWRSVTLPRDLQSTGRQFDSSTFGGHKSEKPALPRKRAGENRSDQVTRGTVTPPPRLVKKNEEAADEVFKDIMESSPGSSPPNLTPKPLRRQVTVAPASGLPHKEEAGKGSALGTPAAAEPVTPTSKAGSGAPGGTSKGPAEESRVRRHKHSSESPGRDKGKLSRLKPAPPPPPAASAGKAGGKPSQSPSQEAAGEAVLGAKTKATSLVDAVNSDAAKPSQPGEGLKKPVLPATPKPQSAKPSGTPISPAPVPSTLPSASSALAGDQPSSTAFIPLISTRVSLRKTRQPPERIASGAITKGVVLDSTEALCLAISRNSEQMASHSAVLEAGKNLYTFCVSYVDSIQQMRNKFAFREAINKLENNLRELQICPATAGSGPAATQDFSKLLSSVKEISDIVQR
T2 sequence (P48730 whole entry, species assumed): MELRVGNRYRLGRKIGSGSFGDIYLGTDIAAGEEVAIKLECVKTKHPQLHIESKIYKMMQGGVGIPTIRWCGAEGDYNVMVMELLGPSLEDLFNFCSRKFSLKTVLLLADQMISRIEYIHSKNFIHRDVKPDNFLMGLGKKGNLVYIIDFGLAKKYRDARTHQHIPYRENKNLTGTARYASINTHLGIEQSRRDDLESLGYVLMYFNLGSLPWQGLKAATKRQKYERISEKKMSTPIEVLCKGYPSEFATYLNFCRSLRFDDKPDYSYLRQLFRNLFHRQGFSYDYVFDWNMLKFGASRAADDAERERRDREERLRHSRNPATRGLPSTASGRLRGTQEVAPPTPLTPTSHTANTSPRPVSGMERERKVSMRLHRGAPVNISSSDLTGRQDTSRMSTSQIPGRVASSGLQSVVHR
T7 sequence (P28482 whole entry, species assumed): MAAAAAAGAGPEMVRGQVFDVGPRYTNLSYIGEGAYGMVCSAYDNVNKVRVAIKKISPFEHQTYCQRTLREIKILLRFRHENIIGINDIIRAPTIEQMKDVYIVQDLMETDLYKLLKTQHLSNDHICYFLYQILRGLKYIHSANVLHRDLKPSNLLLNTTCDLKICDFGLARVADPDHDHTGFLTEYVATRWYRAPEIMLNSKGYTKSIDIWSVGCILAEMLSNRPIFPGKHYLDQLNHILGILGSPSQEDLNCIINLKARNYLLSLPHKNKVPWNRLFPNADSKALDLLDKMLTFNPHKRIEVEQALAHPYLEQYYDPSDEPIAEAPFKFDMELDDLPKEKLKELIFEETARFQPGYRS
T3 sequence (P49841 whole entry, species assumed): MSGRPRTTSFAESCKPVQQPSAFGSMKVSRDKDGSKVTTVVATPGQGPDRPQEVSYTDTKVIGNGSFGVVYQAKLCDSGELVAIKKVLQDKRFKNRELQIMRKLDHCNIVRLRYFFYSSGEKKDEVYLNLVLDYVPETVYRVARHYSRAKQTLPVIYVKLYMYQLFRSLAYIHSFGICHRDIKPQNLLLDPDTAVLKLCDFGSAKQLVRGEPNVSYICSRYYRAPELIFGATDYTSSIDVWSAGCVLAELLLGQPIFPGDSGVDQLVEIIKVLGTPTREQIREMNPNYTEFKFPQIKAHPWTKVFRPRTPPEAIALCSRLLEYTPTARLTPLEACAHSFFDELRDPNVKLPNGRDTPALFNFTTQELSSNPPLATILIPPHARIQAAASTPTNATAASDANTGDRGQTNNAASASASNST

CCN(CC)c1ccc(/C=N/NC(=O)c2ccc(O)cc2)cc1 [DY131]
ΔTm at 20 µM [1]: 0.00876 °C
Mean NFκB response ([2]; 3 µM, 1,5 h): 3734.45 GFP+-cells/confluence ∙ 1000
Mean NFκB response ([2]; 3 µM, 4,5 h): 4226.03 GFP+-cells/confluence ∙ 1000
Mean NFκB response ([2]; 3 µM, 7,5 h): 9363.33 GFP+-cells/confluence ∙ 1000
Mean NFκB response ([2]; 3 µM, 10,5 h): 20103.33 GFP+-cells/confluence ∙ 1000
Mean NFκB response ([2]; 3 µM, 13,5 h): 29726.67 GFP+-cells/confluence ∙ 1000
Mean NFκB response ([2]; 3 µM, 16,6 h): 36476.67 GFP+-cells/confluence ∙ 1000
Mean NFκB response ([2]; 3 µM, 19,5 h): 41143.33 GFP+-cells/confluence ∙ 1000
Mean NFκB response ([2]; 3 µM, 22,5 h): 44036.67 GFP+-cells/confluence ∙ 1000
Mean NFκB response ([2]; 3 µM, 3 h): 4084.29 GFP+-cells/confluence ∙ 1000
Mean NFκB response ([2]; 3 µM, 6 h): 5799.09 GFP+-cells/confluence ∙ 1000
Mean NFκB response ([2]; 3 µM, 9 h): 14733.33 GFP+-cells/confluence ∙ 1000
Mean NFκB response ([2]; 3 µM, 12 h): 25326.67 GFP+-cells/confluence ∙ 1000
Mean NFκB response ([2]; 3 µM, 15 h): 33133.33 GFP+-cells/confluence ∙ 1000
Mean NFκB response ([2]; 3 µM, 18 h): 38383.33 GFP+-cells/confluence ∙ 1000
Mean NFκB response ([2]; 3 µM, 21 h): 42820.00 GFP+-cells/confluence ∙ 1000
Mean NFκB response ([2]; 3 µM, 24 h): 45096.67 GFP+-cells/confluence ∙ 1000
Growth rate [GR] ([3]; 3 µM): 0.59 and 11.37 and 0.74 and 0.90 and 0.70 and 0.29 and 0.57 and 4.91 and 1.76 and 192.70
ΔTm at 20 µM [4]: -0.0354 °C
Necrosis induction [NI] [5]: 0.73 and 0.89 and 0.91 and 0.92
ΔTm at 20 µM [6]: -0.28 °C
ΔTm at 20 µM [7]: 0.35 °C
ΔTm at 20 µM [8]: -3.28 °C
ΔTm at 20 µM [9]: 0.66 °C
VP16 control [fold reporter gene activity] ([10]; 3 µM, vs. DMSO ctrl, single replicates n=1-3): 1.12 fold reporter gene activity and 1.24 fold reporter gene activity and 1.20 fold reporter gene activity
Apoptosis induction [AI] ([11]; 3 µM, HEK293T, 24 h, apoptotic cell count normalized to 0.1% DMSO): -15.91 and -17.65 and -9.63 and -8.53 and 1.25 and 1.40
ΔTm at 20 µM [12]: 0.23 °C
ΔTm at 20 µM [13]: 1.09 °C
ΔTm at 20 µM [14]: -2.05 °C
ΔTm at 20 µM [15]: -0.92 °C

CC/C(=C(/c1ccc(/C=C/C(=O)O)cc1)c1ccc2[nH]ncc2c1)c1ccc(F)cc1Cl [ARN810]
ΔTm at 20 µM [1]: -5.4 °C
Growth rate [GR] ([3]; 1 µM): 0.88 and 0.90 and 1.13 and 0.87 and 1.11 and 0.85
ΔTm at 20 µM [4]: -4.37 °C
ΔTm at 20 µM [6]: 3.37 °C
ΔTm at 20 µM [7]: -3.66 °C
ΔTm at 20 µM [8]: 0 °C
ΔTm at 20 µM [9]: -5.16 °C
VP16 control [fold reporter gene activity] (n=3), n=1 ([10]; 1 µM, replicate n=1): 1.06 fold
VP16 control [fold reporter gene activity] (n=3), n=2 ([10]; 1 µM, replicate n=2): 1.05 fold
VP16 control [fold reporter gene activity] (n=3), n=3 ([10]; 1 µM, replicate n=3): 1.02 fold
Apoptosis induction [AI] ([11]; 1 µM, DMSO 0.1% = 1.00): 0.78 and 0.92
ΔTm at 20 µM [12]: 0 °C
ΔTm at 20 µM [13]: 0 °C
ΔTm at 20 µM [14]: 1.69 °C
ΔTm at 20 µM [15]: -0.16 °C
